Publication PMC7730205, “Different Sensitivity of Control and MICU1- and MICU2-Ablated Trypanosoma cruzi Mitochondrial Calcium Uniporter Complex to Ruthenium-Based Inhibitors” (International Journal of Molecular Sciences, 2020)

Assays:
[1] = tested on: T. cruzi trypomastigotes; test: Trypomastigote attachment assay to glutaraldehyde-fixed Vero cells; format: cell-based, Trypanosoma cruzi; details: 30 min preincubation with 1 µM antimycin A; 1 h at 37 °C on fixed Vero cells
Method: (§1) We analyzed the growth rate of epimastigotes in LIT medium at different Ru265 concentrations (1 µM, 5 µM, and 10 µM). […] The presence of metabolic inhibitors affects attachment and invasion of T. cruzi trypomastigotes to mammalian cells since these are an active process which depends on the expenditure of parasite energy. Preincubation of trypomastigotes for 30 min with antimycin A, which blocks electron transport from cytochrome b to c1, decreased the ability of trypomastigotes to attach to glutaraldehyde-fixed cells (Figure 4b) and invade intact host cells (Figure 4c).
(§2) Figure 4 Effect of Ru265 on Trypanosoma cruzi. (a) Effect of Ru265 on epimastigote growth. […] After 1 h of incubation at 37 °C, the cells were washed, and the number of attached trypomastigotes was counted. […] After 4 h of incubation at 37 °C, the cells were washed, and the number of intracellular parasites was counted. […] (f) Routine respiration (initial oxygen flux values), leak respiration after the addition of 0.5 µg/mL of oligomycin A, and electron transfer system (ETS) capacity after the sequential additions of FCCP (0.2 μM each) were measured for each condition. […] (g) Representative experiment showing mitochondrial Ca^2+ uptake by intact epimastigotes in relative fluorescence units (RFU). […] (h) Changes in fluorescence (before and after ionomycin addition) from three experiments like that shown in panel (g). […]

[2] = tested on: T. cruzi trypomastigotes; test: In vitro infection assay of Vero cells by trypomastigotes; format: cell-based, Trypanosoma cruzi; details: 30 min preincubation with 1 µM antimycin A; 4 h on Vero cells
Method: as §1, §2

[3] = molecular target: T. cruzi mitochondrial Ca2+ uniporter complex (MCUC), control cells (Trypanosoma cruzi, UniProt Q4DHJ5+Q4DL37+Q4DYG3); test: Ca2+ uptake by digitonin-permeabilized control epimastigotes (calcium green-5N); format: cell-based; details: control (scrambled sgRNA) epimastigotes, ~30 µM Ca2+, 5 mM succinate, initial rate, read-out: IC50, inhibition of mitochondrial Ca2+ uptake
Source text: (§3) We first tested the effect of different concentrations of inhibitors on Ca^2+ uptake, as measured by the change in fluorescence of calcium green 5-N, by digitonin-permeabilized control and TcMICU1-KO and TcMICU2-KO epimastigotes. These KO cells were obtained by the CRISPR/Cas9 method in previous work, and we used cells transfected with a scrambled sgRNA as control.
As is shown in Figure 2a, extramitochondrial Ca^2+ was sequestered in the mitochondria of control cells and released by the uncoupler FCCP.
(§4) Figure 2 Inhibition of mitochondrial Ca^2+ uptake by ruthenium-based compounds. Representative traces of Ca^2+ uptake by digitonin-permeabilized epimastigotes in control (a), TcMICU1-KO (b), and TcMICU2-KO (c) epimastigotes in the presence of different Ru360 concentrations. C, control cells; TcMICU1-KO cells; and TcMICU2-KO cells. The reaction was started after adding 50 μM digitonin (Dig) in the presence of ~30 μM CaCl2, 5 mM succinate, and 0.5 μM calcium green-5N, in the presence or absence of Ru360. Where indicated, 4 μM FCCP was added. (d–f) Dose–response inhibition of the initial rate of mitochondrial Ca^2+ uptake in control (C), TcMICU1-KO (1-KO), and TcMICU2-KO (2-KO) cells treated with RuRed (d), Ru360 (e) or Ru265 (f).
(§5) Cells were collected by centrifugation at 1000× g for 7 min and washed twice with buffer A with glucose (BAG: 116 mM NaCl, 5.4 mM KCl, 0.8 mM MgSO4, 5.5 mM D-glucose, and 50 mM HEPES, pH 7.0). […] Mitochondrial Ca^2+ uptake was initiated by the addition of ~30 μM of free calcium, which was calculated using the software Maxchelator Calculator v1.2 (https://somapp.ucdmc.ucdavis.edu/pharmacology/bers/maxchelator/CaEGTA-NIST.htm). […] Fluorescence changes were monitored in an F-7000 fluorescence spectrophotometer (Hitachi, Dallas, TX, USA) with excitation at 506 nm and emission at 532 nm. […] Kd for Ca^2+ indicator probes in our conditions was determined, according to Chweih et al.. Uptake rate inhibitions were calculated as the first derivative of the absolute values of the slope by using the SLOPE Excel function for 200 points (300 to 500 s). […]

[4] = tested on: T. cruzi epimastigotes (control, TcMICU1-KO, TcMICU2-KO); test: Mitochondrial membrane potential of digitonin-permeabilized epimastigotes (safranine O); format: cell-based, Trypanosoma cruzi; details: TcMICU1-KO or TcMICU2-KO cells, succinate
Source text: To determine whether the defect in mitochondrial Ca^2+ uptake in the presence of inhibitors was not secondary to mitochondrial membrane depolarization, we measured the mitochondrial membrane potential (Δψm) of digitonin-permeabilized epimastigotes using safranine O in the presence of succinate as mitochondrial substrate.
Figure 3 Effect of inhibitors on the mitochondrial membrane potential of epimastigotes. Changes in mitochondrial membrane potential (Δψm) of digitonin-permeabilized epimastigotes as detected by changes in safranine O fluorescence in control (a), TcMICU1-KO (b), and TcMICU2-KO (c) epimastigotes in the absence or presence of inhibitors. Cells (5 × 10^7) were added to the reaction buffer (2 mL) containing 0.2% BSA, 5 mM succinate, 50 μM EGTA and 5 μM safranine O. The reaction was started with 50 μM digitonin (DIG) in the presence or absence of the inhibitor, and 250 μM ADP, 1.5 μM carboxyatractyloside (CAT), 50 μM CaCl2 (Ca^2+), 200 μM EGTA, and 4 μM FCCP were added when indicated. A decrease in fluorescence after permeabilization with digitonin indicated the accumulation of the dye in energized mitochondria. The addition of ADP produced a small dissipation of membrane potential, indicating ADP phosphorylation. Δψm returned to its initial level after the addition of the adenine nucleotide translocator inhibitor CAT. The addition of FCCP collapsed the membrane potential. (d) Changes in safranine O fluorescence after digitonin addition (between 30 and 60 s) in control (C), TcMICU1-KO and TcMICU2-KO epimastigotes. […] Changes in safranine O fluorescence in control (C) (e), TcMICU1-KO (1-KO) (f), and TcMICU2-KO (2-KO) (g) epimastigotes after addition of ADP from three experiments like that shown in panels (a–c).
Estimation of mitochondrial membrane potential in situ was done spectrofluorometrically using the indicator dye safranine O, as described previously. […] Fluorescence changes were monitored using the Hitachi F-7000 spectrofluorometer (excitation of 495 nm and emission of 586 nm).

[5] = molecular target: T. cruzi mitochondrial Ca2+ uniporter complex, TcMICU2-KO cells (Trypanosoma cruzi, UniProt Q4DHJ5+Q4DL37+Q4DYG3); test: Ca2+ uptake by digitonin-permeabilized TcMICU2-KO epimastigotes (calcium green-5N); format: cell-based; details: ~30 µM Ca2+, 5 mM succinate, initial rate, read-out: IC50, inhibition of mitochondrial Ca2+ uptake
Source text: as §3, §4
(§6) When dose–response effects were measured in TcMICU1-KO and TcMICU2-KO cells we noticed that these cells were, in general, more sensitive to the inhibitors.
as §5

[6] = molecular target: T. cruzi mitochondrial Ca2+ uniporter complex, TcMICU1-KO cells (Trypanosoma cruzi, UniProt Q4DHJ5+Q4DL37+Q4DYG3); test: Ca2+ uptake by digitonin-permeabilized TcMICU1-KO epimastigotes (calcium green-5N); format: cell-based; details: ~30 µM Ca2+, 5 mM succinate, initial rate, read-out: IC50, inhibition of mitochondrial Ca2+ uptake
Source text: as §3, §4, §6, §5

[7] = tested on: mammalian mitochondria; details: cited from earlier work

Sequence of T. cruzi mitochondrial Ca2+ uniporter complex, TcMICU2-KO cells (Q4DL37 entry or part of it): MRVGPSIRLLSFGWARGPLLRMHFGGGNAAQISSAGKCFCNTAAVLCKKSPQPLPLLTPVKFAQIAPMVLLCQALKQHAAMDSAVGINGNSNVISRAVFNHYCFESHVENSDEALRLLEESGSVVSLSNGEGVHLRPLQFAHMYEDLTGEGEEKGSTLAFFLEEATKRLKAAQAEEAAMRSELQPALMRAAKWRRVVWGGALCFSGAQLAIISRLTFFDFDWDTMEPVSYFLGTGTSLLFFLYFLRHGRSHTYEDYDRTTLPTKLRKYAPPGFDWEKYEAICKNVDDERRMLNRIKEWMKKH
Sequence of T. cruzi mitochondrial Ca2+ uniporter complex, TcMICU2-KO cells (Q4DYG3 entry or part of it): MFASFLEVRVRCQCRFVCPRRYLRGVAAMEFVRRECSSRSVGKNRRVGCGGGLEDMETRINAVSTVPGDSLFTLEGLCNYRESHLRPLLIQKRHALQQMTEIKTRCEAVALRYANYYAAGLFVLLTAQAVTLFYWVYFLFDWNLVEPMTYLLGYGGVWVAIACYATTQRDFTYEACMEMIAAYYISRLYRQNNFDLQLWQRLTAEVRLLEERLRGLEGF
Sequence of T. cruzi mitochondrial Ca2+ uniporter complex, TcMICU2-KO cells (Q4DHJ5 entry or part of it): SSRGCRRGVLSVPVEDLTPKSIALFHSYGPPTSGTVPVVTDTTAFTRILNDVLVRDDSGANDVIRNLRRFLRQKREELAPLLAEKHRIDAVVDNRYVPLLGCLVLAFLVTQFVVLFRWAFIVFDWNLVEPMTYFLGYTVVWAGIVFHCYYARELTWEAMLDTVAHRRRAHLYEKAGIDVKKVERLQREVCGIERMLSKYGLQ
Sequence of T. cruzi mitochondrial Ca2+ uniporter complex (MCUC), control cells (Q4DL37 entry or part of it): as the sequence (Q4DL37 entry or part of it) above
Sequence of T. cruzi mitochondrial Ca2+ uniporter complex (MCUC), control cells (Q4DHJ5 entry or part of it): as the sequence (Q4DHJ5 entry or part of it) above
Sequence of T. cruzi mitochondrial Ca2+ uniporter complex (MCUC), control cells (Q4DYG3 entry or part of it): as the sequence (Q4DYG3 entry or part of it) above
Sequence of T. cruzi mitochondrial Ca2+ uniporter complex (MCUC), control cells (Q4E667 entry or part of it, further chain): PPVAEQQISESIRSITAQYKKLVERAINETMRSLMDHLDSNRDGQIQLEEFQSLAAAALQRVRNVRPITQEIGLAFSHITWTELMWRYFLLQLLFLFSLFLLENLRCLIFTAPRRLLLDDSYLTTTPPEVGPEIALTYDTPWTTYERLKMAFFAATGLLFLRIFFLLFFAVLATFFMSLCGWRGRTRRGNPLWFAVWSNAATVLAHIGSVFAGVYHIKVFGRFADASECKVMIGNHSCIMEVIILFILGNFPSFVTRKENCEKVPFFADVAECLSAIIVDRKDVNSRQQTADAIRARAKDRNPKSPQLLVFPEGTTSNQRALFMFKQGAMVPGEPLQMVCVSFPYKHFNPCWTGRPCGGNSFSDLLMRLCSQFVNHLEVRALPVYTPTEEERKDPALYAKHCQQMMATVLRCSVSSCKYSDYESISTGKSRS
Sequence of T. cruzi mitochondrial Ca2+ uniporter complex, TcMICU1-KO cells (Q4DHJ5 entry or part of it): as the sequence (Q4DHJ5 entry or part of it) above
Sequence of T. cruzi mitochondrial Ca2+ uniporter complex, TcMICU1-KO cells (Q4DL37 entry or part of it): as the sequence (Q4DL37 entry or part of it) above
Sequence of T. cruzi mitochondrial Ca2+ uniporter complex, TcMICU1-KO cells (Q4DYG3 entry or part of it): as the sequence (Q4DYG3 entry or part of it) above

| Molecule | Ability of trypomastigotes to attach to glutaraldehyde-fixed cells [1] | Ability of trypomastigotes to invade intact host cells [2] | IC50 [3] [nM] | Effect on mitochondrial membrane potential (Δψm) and response to ADP [4] | IC50 [5] [nM] | IC50 [6] [nM] | Effective concentration range in mammalian mitochondria [7] |
| --- | --- | --- | --- | --- | --- | --- | --- |
| CCCCCC[C@H]1C(=O)O[C@H](C)[C@H](NC(=O)c2cccc(NC=O)c2O)C(=O)O[C@@H](C)[C@@H]1OC(=O)CC(C)C [antimycin A] | decreased | decreased |  |  |  |  |  |
| Ru360 |  |  | 186 ± 15.2 | did not significantly affect | 63.6 ± 6.9 | 46.7 ± 2.7 |  |
| N.N.N.N.N.N.N.N.N.N.N.N.N.N.[Cl-].[Cl-].[Cl-].[Cl-].[Cl-].[Cl-].[O-2].[O-2].[Ru+3].[Ru+3].[Ru+4] [RuRed, ruthenium red] |  |  | 117 ± 16.9 | did not significantly affect | 11.9 ± 1.4 | 148 ± 21.7 | effective in the submicromolar range |
| N.N.N.N.N.N.N.N.[Cl][Ru+3].[NH]=[Ru][Cl] [Ru265] |  |  | 26.3 ± 2 |  | 14.1 ± 1.3 | 12.1 ± 2.3 |  |
